According to patent publication US11674959B2, “Methods for identifying and preparing pharmaceutical agents for activating Tie1 and/or Tie2 receptors” (The Johns Hopkins University, priority 2017, dated 2023):

How the values were obtained:
phospho-Tie2 (Y992) = test: Immunofluorescence of MEC monolayers for phospho-Tie2 (Y992); format: cell-based, human; details: 200 ng/ml Ang2 for fifteen minutes plus AXT107
Protocol: As such, subsequent experiments evaluate the effects of AXT107 at cell-cell junctions in MEC monolayers using immunofluorescence microscopy rather than at the EC-ECM interface.
Human dermal microvascular endothelial cells (Lonza) were maintained at 37° C. and 5% CO2 in EBM-2MV medium (Lonza) and used between passages two through seven. Where applicable, cells were serum starved in EBM-2 medium (Lonza) with no supplements. For FITC-Dextran permeability assays phenol red-free media were used to avoid auto-fluorescence. AXT107 were manufactured at New England Peptide by […], lyophilized, and dissolved in 100% DMSO.
(§1) Glass-bottomed, 96-well plates with half well size were coated with 10 μg/ml FN1 for two hours at 37° C. The FN1 solution was then removed by aspiration and the plate seeded with 4×10^3 MECs in EGM-2MV media. After twenty-four hours, the cells were washed once with dPBS containing Ca^2+ and Mg^2+ to remove dead cells and the cells were allowed to grow for an additional twenty-four hours. For three-hour duration treatments (i.e., VE-cadherin), cells were washed twice with dPBS containing Ca^2+ and Mg^2+ and serum starved in EBM-2 for ninety minutes. The media was then removed and the cells were treated for three hours with 100 μl of EBM-2 media containing 200 ng/ml Ang2 or PBS and varying concentrations of AXT107 or DMSO. […]

α5β1 integrin = target: T1, α5β1 integrin (Homo sapiens, UniProt P05556+P08648); test: Immunoprecipitation of α5 integrin in Triton X-100 fractionated lysates, blotted for β1; format: cell-based; details: after AXT107 treatment; data not shown
T1 construct: host or cells: human dermal microvascular endothelial cells (MECs)
From the text: Since β1 integrin is the only known β subunit to heterodimerize with the α5 integrin subunit, it unlikely that the α5 subunit, that was observed here in the insoluble fractions, originated from a heterodimeric integrin pair other than α5β1. Unfortunately, high background impaired the visualization of α5 integrin alone by immunofluorescence. Given the unexpected discovery that AXT107 dissociates the integrin heterodimer, this discovery was confirmed in several independent assays. […] Thus, interactions between Tie2 and heterodimerized α5β1 integrin appear to retain Tie2 at the EC-ECM interface.
The isolation of Triton X-100 soluble and insoluble fractions was performed using modifications to previously-described procedures (see, e.g., Lampugnani et al., J Cell Biol. 1995; 129(1):203-217). FN1-coated six-well plates were seeded with 2.5×10^6 cells and cultured for forty-eight hours, as described above. The cultures were then serum starved for ninety minutes in EBM-2 media, treated with 100 μM AXT107 or DMSO vehicle, and fifteen minutes with 1 mM sodium vanadate. The cells were then stimulated with either 100 ng/ml VEGFA, 400 ng/ml Ang2, or PBS for fifteen minutes. The plates were then transferred to ice and washed twice with cold dPBS containing Ca^2+ and Mg^2+ and twice with EBM-2 media. […] Samples were analyzed by western blot as described above. […]

MEC monolayers = test: Immunofluorescence of MEC monolayers for VE-cadherin and F-actin; format: cell-based, human; details: 200 ng/ml Ang2, increasing concentrations of AXT107
Protocol: The jaggedness of these junctions is related to the structure of actin within the cell.
as §1, with “DMSO. For fifteen minute-treated samples (i.e., phospho-Tie2), the cells were serum starved in EBM-2 media for 165 minutes, incubated for ninety minutes with varying concentrations of AXT107 or DMSO in EBM-2, and finally stimulated for fifteen minutes with 200 ng/ml Ang2 or PBS supplemented with peptide to retain the same concentrations. These times were chosen so that both treatment procedures would be completed at the same time. The cells were then washed twice with cold dPBS containing Ca^2+ and Mg^2+ and fixed in 10% neutral buffered formalin for fifteen minutes.” for “DMSO.”

T1 sequence (P08648 42-894 limits assumed): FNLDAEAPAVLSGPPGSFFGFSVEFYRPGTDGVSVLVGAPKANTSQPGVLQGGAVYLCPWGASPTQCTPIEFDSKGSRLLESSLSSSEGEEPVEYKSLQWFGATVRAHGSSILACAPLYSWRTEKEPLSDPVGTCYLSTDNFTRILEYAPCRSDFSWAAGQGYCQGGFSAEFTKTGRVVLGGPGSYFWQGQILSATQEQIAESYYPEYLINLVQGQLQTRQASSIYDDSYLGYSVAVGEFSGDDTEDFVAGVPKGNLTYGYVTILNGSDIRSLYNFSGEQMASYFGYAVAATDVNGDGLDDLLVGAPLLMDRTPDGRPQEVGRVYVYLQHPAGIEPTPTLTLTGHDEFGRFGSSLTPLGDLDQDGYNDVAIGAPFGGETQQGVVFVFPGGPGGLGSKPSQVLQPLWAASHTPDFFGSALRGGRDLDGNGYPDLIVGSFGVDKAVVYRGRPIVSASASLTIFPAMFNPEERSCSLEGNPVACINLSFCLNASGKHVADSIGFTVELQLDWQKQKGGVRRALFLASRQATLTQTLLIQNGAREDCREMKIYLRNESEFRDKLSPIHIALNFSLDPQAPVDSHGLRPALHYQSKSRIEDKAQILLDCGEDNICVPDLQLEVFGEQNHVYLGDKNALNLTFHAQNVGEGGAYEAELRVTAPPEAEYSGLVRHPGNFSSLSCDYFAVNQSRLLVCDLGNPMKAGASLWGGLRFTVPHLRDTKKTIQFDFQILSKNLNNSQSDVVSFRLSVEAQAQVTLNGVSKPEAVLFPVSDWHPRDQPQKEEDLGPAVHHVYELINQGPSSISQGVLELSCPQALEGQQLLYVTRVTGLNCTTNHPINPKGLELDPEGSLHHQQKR
T1 sequence (P08648 895-1049 limits assumed): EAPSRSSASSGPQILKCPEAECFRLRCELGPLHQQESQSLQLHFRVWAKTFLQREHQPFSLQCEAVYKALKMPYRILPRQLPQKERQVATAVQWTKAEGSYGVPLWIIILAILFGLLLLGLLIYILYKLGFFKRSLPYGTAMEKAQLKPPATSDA
T1 sequence (P05556 21-798): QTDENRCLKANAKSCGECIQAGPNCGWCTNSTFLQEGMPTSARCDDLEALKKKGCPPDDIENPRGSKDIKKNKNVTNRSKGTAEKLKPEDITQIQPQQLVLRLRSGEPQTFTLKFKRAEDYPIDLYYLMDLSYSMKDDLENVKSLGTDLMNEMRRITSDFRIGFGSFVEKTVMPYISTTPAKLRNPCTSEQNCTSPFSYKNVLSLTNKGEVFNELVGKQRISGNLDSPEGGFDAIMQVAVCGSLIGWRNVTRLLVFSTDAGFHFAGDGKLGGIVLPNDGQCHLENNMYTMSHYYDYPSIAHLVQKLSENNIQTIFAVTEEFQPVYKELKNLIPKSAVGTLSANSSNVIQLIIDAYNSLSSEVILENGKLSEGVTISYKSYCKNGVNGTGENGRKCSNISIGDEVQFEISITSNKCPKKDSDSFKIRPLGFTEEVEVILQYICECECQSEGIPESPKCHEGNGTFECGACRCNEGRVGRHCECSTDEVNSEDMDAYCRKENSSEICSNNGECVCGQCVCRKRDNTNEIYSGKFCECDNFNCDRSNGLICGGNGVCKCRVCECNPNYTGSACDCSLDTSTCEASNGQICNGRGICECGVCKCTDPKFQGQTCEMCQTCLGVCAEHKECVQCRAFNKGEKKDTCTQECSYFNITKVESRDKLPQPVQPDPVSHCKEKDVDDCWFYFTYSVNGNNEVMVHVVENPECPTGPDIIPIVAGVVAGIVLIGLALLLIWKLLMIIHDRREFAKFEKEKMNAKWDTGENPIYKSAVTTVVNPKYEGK

With LRRFSTAPFAFIDINDVINF [AXT107] the “phospho-Tie2 fluorescence intensity and distribution” value (phospho-Tie2 (Y992)) was “increased overall fluorescence intensity and redistributed phospho-Tie2 along cell-cell junctions and into large clusters”, the “α5-β1 interaction by fraction after α5 immunoprecipitation” value (α5β1 integrin) was “interactions with β1 were only found in the soluble fractions” and the Actin fiber arrangement (MEC monolayers) was “became more cortical with increasing concentrations of AXT107”. For the same sequence, the “Distribution of VE-cadherin at junctions” value (MEC monolayers) was “became progressively smoother with increasing concentrations of AXT107”.
